# Measurements as given in article PMC7737769, “Pharmacological inhibition of syntenin PDZ2 domain impairs breast cancer cell activities and exosome loading with syndecan and EpCAM cargo” (Journal of Extracellular Vesicles, 2020).
# Tests used:
# [1] = target: T1, syntenin‐SDC2 complex (GST-SyntFL / SDC2 peptide) (Homo sapiens, UniProt O00560); assay: HTRF assay, syntenin-SDC2 interaction; assay type: biochemical; conditions: for GST SyntFL Syndecan 2 (signal ratio): 400µM compound, Figure 1c; for inhibition of syntenin PDZ interactions: HTRF primary screen, 400µM, syntenin-SDC2 and syntenin-Frizzled7; for HTRF ASSAY GST-SyntFL SDC2 (HTRF signal ratio): primary screen, 400 µM compound, signal below 0.9 considered effective inhibition, Table S1
# T1 construct: residues 1–298 or syntenin full‐length (FL) for HTRF assays; made in house; host or cells: E. coli ER2566
# T1 sequence (O00560 1-298): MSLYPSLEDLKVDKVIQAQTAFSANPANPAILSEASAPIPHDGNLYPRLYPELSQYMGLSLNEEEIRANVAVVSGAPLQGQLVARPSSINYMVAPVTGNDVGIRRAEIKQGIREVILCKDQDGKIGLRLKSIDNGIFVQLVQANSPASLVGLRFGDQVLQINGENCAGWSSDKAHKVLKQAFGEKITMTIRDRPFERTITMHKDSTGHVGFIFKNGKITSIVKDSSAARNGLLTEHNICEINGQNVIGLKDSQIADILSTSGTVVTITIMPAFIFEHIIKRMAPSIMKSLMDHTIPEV
# GRASP55‐JAM‐C complex = tested on: T2, GRASP55‐JAM‐C complex; assay: HTRF assay, GRASP55-JAM-C interaction; assay type: biochemical, human; conditions: 400µM compound; Figure 1c
# T2 construct: Human GRASP55 tandem PDZ; made in house; host or cells: E. coli BL21 (DE3)
# Method: (§1) HTRF assays were performed in white 96Well Small VolumeHiBase Polystyrene Microplates (Greiner) with a total working volume of […], as described previously (Milhas et al., 2016). Briefly, compounds were firstly dispensed into the wells at 400 µM for the primary screen or with serial DMSO dilutions for IC50 measurement assays. Primary screening assays have been performed in monoplicate while IC50 measurements were performed in triplicates. All HTRF reagents were purchased from CisBio Bioassays and reconstituted according to the supplier protocols. The plates were spun for 3 min at 500 × g and then incubated at 4°C for 16 h. The HTRF signals were recorded on a POLAR star Omega plate reader (BMG Labtech) with an excitation filter at 337 nm and fluorescence wavelength measurement at 620 and 665 nm, an integration delay of 60 µs and an integration time of 400 µs. Results were analysed with a two‐wavelength signal ratio: [intensity (665 nm)/intensity (620 nm)] × 10^4. Percentage of inhibition was calculated using the following equation: % inhibition = [(compound signal)–(min signal)]/[(max signal)–(min signal)] × 100, where ‘max signal’ is the signal ratio with the compound vehicle alone (DMSO) and ‘min signal’ the signal ratio without protein B. For IC50 measurements, values were normalized and fitted with Prism (GraphPad software) using the following equation: Y = 100/(1+((X/ IC50)ˆHill slope)).
# (§2) The search strategy for PDZ2 syntenin inhibitors was based on the PDZ targeted library developed from Enamine compound collection. The PDZ targeted library was developed to cover virtually all PDZ domains. Consequently, to create the syntenin PDZ2 focused library we used two independent paths: docking of the PDZ targeted library against structures of syntenin PDZ2 available in Protein Data Bank and a random selection from the PDZ targeted library. The docking has produced 21 virtual hits, which were added to 118 randomly selected compounds (10% of the pan PDZ library). The resultant set of 139 compounds, syntenin PDZ library was subjected to experimental validation. The primary screen was performed at 400µM using a previously validated Homogeneous Time Resolved Fluorescence (HTRF) assay (Milhas et al., 2016). HTRF is based on Fluorescence Resonance Energy Transfer (FRET) between two fluorescent reagents. In the present case, Anti‐GST‐Terbium antibody and streptavidin‐bound Dynamic2 were used as donor and acceptor respectively. Interactions between GST PDZ‐fusion proteins and biotinylated peptides containing PDZ binding motifs were challenged with the potential inhibitors. In parallel, control experiments were performed with a biotinylated‐GST to verify that compounds were not interfering with the FRET signal in a non‐specific manner. To identify inhibitors of syntenin PDZ interactions, we tested for the effect of the 139 compounds on syntenin‐SDC2 and syntenin‐Frizzled7 complexes (Figure 1a; Table S1). When the HTRF signal dropped below 0.9, inhibition was considered as effective. […] Noteworthy, these compounds had no effect on other PDZ complexes like GRASP55‐JAM‐B or GRASP55‐JAM‐C and Erbin‐Erbb2 or Erbin‐P0071 (Figure 1c).
# Erbin‐Erbb2 complex = tested on: T3, Erbin‐Erbb2 complex; assay: HTRF assay, Erbin-ERBB2 interaction; assay type: biochemical, human; conditions: 400µM compound; Figure 1c
# T3 construct: human Erbin PDZ domain; made in house; host or cells: E. coli BL21 (DE3)
# Method: as §1, §2
# GRASP55‐JAM‐B complex = tested on: T4, GRASP55‐JAM‐B complex; assay: HTRF assay, GRASP55-JAM-B interaction; assay type: biochemical, human; conditions: 400µM compound; Figure 1c
# T4 construct: Human GRASP55 tandem PDZ; made in house; host or cells: E. coli BL21 (DE3)
# Method: as §1, §2
# biotinylated‐GST = assay: HTRF control with biotinylated-GST (non-specific interference with FRET signal); conditions: for GST-biot (signal ratio): 400µM compound, Figure 1c; for effect on control (biotinylated‐GST) FRET signals: HTRF primary screen, 400µM; for HTRF ASSAY GST-biot (HTRF signal ratio, control): primary screen, 400 µM compound, Table S1
# Method: as §1, §2
# Erbin‐P0071 complex = tested on: T5, Erbin‐P0071 complex; assay: HTRF assay, Erbin-P0071 interaction; assay type: biochemical, human; conditions: 400µM compound; Figure 1c
# T5 construct: human Erbin PDZ domain; made in house; host or cells: E. coli BL21 (DE3)
# Method: as §1, §2
# [2] = tested on: T6, syntenin‐Frizzled7 complex (GST-SyntFL / FZD7 peptide); assay: HTRF assay, syntenin-Frizzled 7 interaction; assay type: biochemical, human; conditions: for GST SyntFL Frizzled 7 (signal ratio): 400µM compound, Figure 1c; for HTRF ASSAY GST-SyntFL FZD7 (HTRF signal ratio): primary screen, 400 µM compound, signal below 0.9 considered effective inhibition, Table S1
# T6 construct: residues 1–298 or syntenin full‐length (FL) for HTRF assays; made in house; host or cells: E. coli ER2566
# Method: as §1, §2
SMILES,GST SyntFL Syndecan 2 (signal ratio) [1],inhibition of syntenin PDZ interactions [1],HTRF ASSAY GST-SyntFL SDC2 (HTRF signal ratio) [1],GST-GRASP JAM-C (signal ratio) (GRASP55‐JAM‐C complex),GST-Erbin ERBB2 (signal ratio) (Erbin‐Erbb2 complex),GST-GRASP JAM-B (signal ratio) (GRASP55‐JAM‐B complex),GST-biot (signal ratio) (biotinylated‐GST),effect on control (biotinylated‐GST) FRET signals (biotinylated‐GST),"HTRF ASSAY GST-biot (HTRF signal ratio, control) (biotinylated‐GST)",GST-Erbin P0071 (signal ratio) (Erbin‐P0071 complex),GST SyntFL Frizzled 7 (signal ratio) [2],HTRF ASSAY GST-SyntFL FZD7 (HTRF signal ratio) [2],"inhibition at 400 µM ([1]; HTRF, 400 µM, syntenin-SDC2 and syntenin-Frizzled 7 complexes, read-out: extent of inhibition of Syntenin‐PDZ complexes)"
CC(C)[C@H](NC(=O)COc1ccc2ccccc2c1)C(=O)O [Compound C4],0.78,inhibit,0.78,0.89,1.02,0.97,0.97,no significant effect,1.02,0.89,0.78,0.77,–
CC(C)[C@H](NS(=O)(=O)c1ccc2c(c1)OCCCO2)C(=O)O [Compound C37],0.74,inhibit,0.73,1,1.04,1,0.97,no significant effect,1.04,0.95,0.7,0.68,–
CC(C)[C@H](NS(=O)(=O)c1ccc2ccccc2c1)C(=O)O [Compound C38],0.58,inhibit,0.59,1,0.92,1,0.96,no significant effect,0.92,1,0.55,0.56,40%
Cc1ccc(S(=O)(=O)N[C@H](C(=O)O)C(C)C)cc1C [Compound C47],0.78,inhibit,0.74,1,0.96,1.1,0.99,no significant effect,0.96,1,0.78,0.71,–
